According to patent US9688638B2, “Opioid agonists and uses thereof” (priority 2013, dated 2017):
pEC50, pIC50, pKi: −log10 of the molar value. Where two headings read alike, the source gives them in different places.

Legend:
[1] = biological target: recombinant human kappa (KOR) opioid receptor (Homo sapiens (Human), UniProt P41145); experiment: biochemical; format: binding
[2] = biological target: KOR (Homo sapiens (Human), UniProt P41145); experiment: cAMP accumulation assay, forskolin-stimulated CHO-K1 cells stably expressing KOR; format: cell-based; conditions: for EC50: inhibition of cAMP accumulation, forskolin 20 μM, read-out: EC50 cAMP (nM)-KOR
Description: (§1) Inhibition of cAMP accumulation by select compounds was measured in forskolin-stimulated CHO-K1 cells stably expressing KOR. CHO-K1 cells stably expressing KOR were harvested using Invitrogen Cell Dissociation Buffer, and then centrifuged at 1200 rpm for five minutes. The supernatant was aspirated and cells were resuspended in assay buffer to a density of 4×10^5 cells/mL. 25 μL of cells were added into a white half-area 96 well plate. Fourteen point serial dilutions of test compounds were carried out in assay buffer (PBS with 0.5 mM IBMX). Ketazocine was used as a positive control for each assay. 12.5 μL of compound was added to the cells in duplicate for each test concentration. The cells were then stimulated with 12.5 μL forskolin at a final concentration 20 μM. Cells were incubated for 45 minutes in a 37° C., 5% CO2 water jacketed incubator. CisBio HTRF cAMP assay reagent was used for cAMP quantitation. Two hours after substrate addition, signal at 665/615 nm was measured using the Perkin Elmer Victor X4 HTRF reader. Data analysis was done using GraphPad Prism, sigmoidal dose-response (variable slope) curve fitting.

[3] = test system: Swiss Albino or CD-1 male mice; experiment: Acetic acid writhing (AAW) analgesic assay; format: in vivo
Description: Approaches for evaluating analgesic activity of a compound of the present invention in vivo include a “writhing test.” Briefly, the compound to be tested is administered [by, for example, injection (e.g., subcutaneous injection)] to the mouse. Thereafter, a 0.5% acetic acid solution is administered (i.p.) to a mouse and the numbers of writhing responses are counted for twenty minutes. Antinociception is quantified as reduction in the number of writhes respective to vehicle.
An analgesic assay was used to determine whether a given compound can reduce and/or prevent visceral pain in mice. The assay utilizes Swiss Albino or CD-1 male mice (5-10 mice per group), each mouse being approximately 0.015-0.030 kg on the study day. Mice were treated according to standard protocols.
The animal was given an intraperitoneal (IP) injection of an irritant (acetic acid) that induces “writhing” which may include: contractions of the abdomen, twisting and turning of the trunk, arching of the back and the extension of the hindlimbs. Mice are given a single IP injection (0.1 mL/10 g bodyweight) of a 0.5% acetic acid solution. After the injection the animals were returned to their observation enclosure and their behavior was observed. Contractions were counted between 0 and 20 minutes after the injection. The animals were used once. In certain instances, the test articles were administered at multiple doses to determine a dose response curve.
Table 4 provides the results for certain compounds of the present invention that were administered subcutaneously. Table 5 provides the results for certain compounds of the present invention that were administered orally.

[4] = biological target: recombinant human mu (MOR) opioid receptor (Homo sapiens (Human), UniProt P35372); experiment: Radioligand competition binding assay, mu opioid receptor; conditions: [3H]Naloxone 4 nM, CHO-K1 membranes
Description: The binding affinities of certain compounds of the present invention were evaluated using radioligand binding assays in membranes prepared from CHO-K1 cells expressing recombinant human kappa (KOR) or mu (MOR) opioid receptors.
Competition binding experiments were conducted by incubating membrane protein to equilibrium in triplicate in the presence of a fixed concentration of radioligand and increasing concentrations of test compound for evaluation of binding to KOR or single concentration (10 μM) of test compound for evaluation of binding to MOR in 101 μL final volume. The radioligands used were specific for each receptor type, and the assay conditions are described in Table 1. Following incubations, the membranes were rapidly filtered through GF/B filter plate (presoaked with 0.5% polyethyleneimine), washed five times with cold 50 mM Tris-HCl, pH 7.5, and the bound radioactivity was then measured by liquid scintillation counting. Non-specific binding was measured in the presence of excess ligand; this value was subtracted from the total binding to yield the specific binding at each test concentration.
Ki (affinity of test compound) was obtained using the Cheng Prusoff correction using experimental Kd (affinity of radioligand) values that were previously determined under these assay conditions. For MOR binding, compounds were tested at one concentration, 10 μM, to evaluate its ability to inhibit specific radioligand binding. The values are expressed as percent inhibition of specific binding and greater than 50% inhibition of binding was considered to be significant.
With respect to determining MOR binding, an approach similar to one used for KOR binding was used.

[5] = biological target: MOR (Homo sapiens (Human), UniProt P35372); experiment: cAMP accumulation assay, forskolin-stimulated CHO-K1 cells stably expressing MOR; format: cell-based; conditions: inhibition of cAMP accumulation
Description: as §1
Using a similar approach, inhibition of cAMP accumulation by select compounds was also determined in forskolin-simulated CHO-K1 cells stably expressing MOR (wherein for this assay a density of 8×10^5 cells/mL was used and the positive control was DAMGO). Certain compounds of the present invention were tested as described above.

[6] = test system: Male Swiss Albino mice; experiment: Locomotor activity; format: in vivo; conditions: oral, 30 min pre-dose, 20 min observation
Description: The locomotor activity (LMA) model may be conducted to measure changes in activity following test article administration, which may be used to assess the CNS effects of the drug. In brief, at a predetermined time post-dose, rats are placed into observation chambers which are equipped with infrared photocells that can sense motion in the x, y, and z planes. Activity is measured as the number of photobeam breaks in a given plane (horizontal or vertical) or total distance traveled.
Male Swiss Albino mice were treated orally with vehicle (0.5% HPMC+0.1% Tween80), ketazocine, Compound 12 (0.3, 3 and 30 mg/kg) or Compound 20 (0.3, 3 and 30 mg/kg) thirty minutes prior to placement in the locomotor activity chamber. Total distance traveled was measured over the twenty minute observation time following placement in the locomotor activity chamber. Data are normalized relative to percent distance traveled in the vehicle group. The efficacy of Compound 12 (reported as percent distance traveled in comparison to vehicle) was 88.85%, 83.74% and 0.08% at 0.3, 3 and 30 mg/kg dosages, respectively, while the locomotor activity of Compound 20 (reported as percent distance traveled in comparison to vehicle) was 100%, 88% and 0.03% at 0.3, 3 and 30 mg/kg dosages, respectively.

[7] = Cheng Prusoff correction, [3H]Diprenorphine 1 nM, CHO-K1 membranes, read-out: Kappa receptor binding Ki
[8] = [3H]Diprenorphine 1 nM, CHO-K1 membranes, read-out: Kappa receptor binding IC50
[9] = Mus musculus, po, 20 min, oral, read-out: AAW % Efficacy
[10] = Mus musculus, sc, 20 min, subcutaneous, read-out: AAW % Efficacy

C[C@H]1[C@H]2C(=O)c3ccc(O)cc3[C@]1(C)CCN2CC1CC1 [Ketazocine, (2S,6R,11R)-3-(cyclopropylmethyl)-8-hydroxy-6,11-dimethyl-3,4,5,6-tetrahydro-2,6-methanobenzo[d]azocin-1(2H)-one, reference compound]
pKi [1, 7]: 8.89 | pIC50 [1, 8]: 8.25 | pEC50 [2]: 9.26 | inhibition in vivo at 0.1 mg/kg [3, 9]: 12.8% | inhibition in vivo at 1 mg/kg [3, 9]: 34.5% | inhibition in vivo at 10 mg/kg [3, 9]: 58.9% | inhibition in vivo at 100 mg/kg ([3]; Mus musculus, po, 20 min, oral, 100 mg/kg, read-out: AAW % Efficacy): 100% | inhibition in vivo at 0.01 mg/kg ([3]; Mus musculus, sc, 20 min, subcutaneous, 0.01 mg/kg, read-out: AAW % Efficacy): 10.6% | inhibition in vivo at 0.1 mg/kg [3, 10]: 50% | inhibition in vivo at 1 mg/kg [3, 10]: 100% | pIC50 [4]: 8.08

C[C@H]1[C@H]2C(=O)c3ccc(NC(C)(C)CO)cc3[C@]1(C)CCN2CC1CC1 [Compound 23, (2S,6R,11R)-3-(Cyclopropylmethyl)-8-((1-hydroxy-2-methylpropan-2-yl)amino)-6,11-dimethyl-3,4,5,6-tetrahydro-2,6-methanobenzo[d]azocin-1(2H)-one]
pKi [1, 7]: 5.98 | EC50 [2]: 395 nM | EC50 [5]: 3290 nM | pKi [4]: 5.10

C[C@H]1[C@H]2C(=O)c3ccc(NC(CO)CO)cc3[C@]1(C)CCN2CC1CC1 [Compound 24, (2S,6R,11R)-3-(cyclopropylmethyl)-8-((1,3-dihydroxypropan-2-yl)amino)-6,11-dimethyl-3,4,5,6-tetrahydro-2,6-methanobenzo[d]azocin-1(2H)-one]
pKi [1, 7]: 6.31 | EC50 [2]: 107 nM | EC50 [5]: 598 nM | pKi [4]: 5.74

C[C@H]1[C@H]2C(=O)c3ccc(Nc4ccc(NCCOCCOCCOCCOCCOC(F)(F)F)cc4)cc3[C@]1(C)CCN2CC1CC1 [Compound 20, (2S,6R,11R)-3-(cyclopropylmethyl)-6,11-dimethyl-8-((4-((1,1,1-trifluoro-2,5,8,11,14-pentaoxahexadecan-16-yl)amino)phenyl)amino)-3,4,5,6-tetrahydro-2,6-methanobenzo[d]azocin-1(2H)-one]
pKi [1, 7]: 8.54 | EC50 [2]: 6.1 nM | EC50 [5]: 128 nM | inhibition in vivo at 0.3 mg/kg ([3]; Mus musculus, po, 20 min, oral, 0.3 mg/kg, read-out: AAW % Efficacy): 39.1% | inhibition in vivo at 3 mg/kg ([3]; Mus musculus, po, 20 min, oral, 3 mg/kg, read-out: AAW % Efficacy): 79.5% | inhibition in vivo at 30 mg/kg ([3]; Mus musculus, po, 20 min, oral, 30 mg/kg, read-out: AAW % Efficacy): 100% | inhibition in vivo at 10 mg/kg [3, 10]: 88.1% | pKi [4]: 7.35 | percent distance traveled in comparison to vehicle ([6]; 0.3 mg/kg): 100% | percent distance traveled in comparison to vehicle ([6]; 3 mg/kg): 88% | percent distance traveled in comparison to vehicle ([6]; 30 mg/kg): 0.03%

COCCOCCOCCOCCOCCOCCOCCNc1ccc2c(c1)[C@]1(C)CCN(CC3CC3)[C@H](C2=O)[C@@H]1C [Compound 3, (2S,6R,11R)-3-(Cyclopropylmethyl)-8-(2,5,8,11,14,17,20-heptaoxadocosan-22-ylamino)-6,11-dimethyl-3,4,5,6-tetrahydro-2,6-methano-3-benzazocin-1(2H)-one]
pKi [1, 7]: 6.11 | pIC50 [1, 8]: 5.48 | EC50 [2]: 122 nM

COCCOCCOCCOCCOCCNc1ccc(Nc2ccc3c(c2)[C@]2(C)CCN(CC4CC4)[C@H](C3=O)[C@@H]2C)cc1 [Compound 12, (2S,6R,11R)-8-((4-(2,5,8,11,14-pentaoxahexadecan-16-ylamino)phenyl)amino)-3-(cyclopropylmethyl)-6,11-dimethyl-3,4,5,6-tetrahydro-2,6-methanobenzo[d]azocin-1(2H)-one]
pKi [1, 7]: 8.30 | EC50 [2]: 7 nM | EC50 [5]: 189 nM | inhibition in vivo at 0.1 mg/kg [3, 9]: 22.5% | inhibition in vivo at 1 mg/kg [3, 9]: 56.9% | inhibition in vivo at 10 mg/kg [3, 9]: 97.2% | AAW % Efficacy ([3]; subcutaneous, 3 mg/kg): 68.6% | AAW percent efficacy, outlier data removed ([3]; subcutaneous, 3 mg/kg, outlier data removed): 65.09 | AAW % Efficacy ([3]; subcutaneous, 30 mg/kg): 100.0% | pKi [4]: 7.23 | percent distance traveled in comparison to vehicle ([6]; 0.3 mg/kg): 88.85% | percent distance traveled in comparison to vehicle ([6]; 3 mg/kg): 83.74% | percent distance traveled in comparison to vehicle ([6]; 30 mg/kg): 0.08%

COCCOCCOCCOc1ccc2c(c1)[C@]1(C)CCN(CC3CC3)[C@H](C2=O)[C@@H]1C [Compound 4, (2S,6R,11R)-3-(Cyclopropylmethyl)-8-{2-[2-(2-methoxyethoxy)ethoxy]ethoxy}-6,11-dimethyl-3,4,5,6-tetrahydro-2,6-methano-3-benzazocin-1(2H)-one]
pIC50 [1]: 6.06 | pKi [1]: 6.69 | pEC50 [2]: 8.03 | inhibition in vivo at 200 mg/kg ([3]; Mus musculus, po, 20 min, oral, 200 mg/kg, read-out: AAW % Efficacy): 3.8% | inhibition in vivo at 3 mg/kg ([3]; Mus musculus, sc, 20 min, subcutaneous, 3 mg/kg, read-out: AAW % Efficacy): 0% | inhibition in vivo at 10 mg/kg [3, 10]: 39.7% | inhibition in vivo at 30 mg/kg ([3]; Mus musculus, sc, 20 min, subcutaneous, 30 mg/kg, read-out: AAW % Efficacy): 100%
